In brackets after ≈: the same amount, converted by molar mass. Where two headings read alike, the source gives them in different places.
Key:
[1] = in vitro; type: cell-based; conditions: Chinese hamster, Cytotox. CHO-K1
Description: (§1) COS-1 and CHO-K1 cell suspensions were prepared, seeded into 96-well tissue culture treated black-walled microtiter plates (density determined by cell line), and incubated overnight at 37° C., in 5% CO2 and approximately 95% humidity. The following day, serial dilutions of compound were prepared under sterile conditions and transferred to cell plates. Cell/Compound plates were incubated under the above conditions for 24 hours. Following the incubation period, media/compound was aspirated and 50 μl of resazurin (0.042 mg/ml in PBS w/Ca and Mg) is added. The plates were then incubated under the above conditions for 2 hours and then placed in the dark at room temperature for an additional 30 minutes. Fluorescence measurements were taken (excitation 535 nm, emission 590 nm). The IC50 (concentration of compound causing 50% growth inhibition) was then calculated. Table 3 includes IC50 data for several substituted tetracycline compounds.

[2] = system: gram positive bacteria; experiment: In vitro anti-bacterial activity assay (broth dilution MIC), gram positive bacteria; type: cell-based, S. aureus; conditions: 18 h
Description: (§2) Bacterial infections may be caused by a wide variety of gram positive and gram negative bacteria. Some of the compounds of the invention are useful as antibiotics against organisms which are resistant and/or sensitive to other tetracycline compounds. The antibiotic activity of the tetracycline compounds of the invention may by using the in vitro standard broth dilution method described in Waitz, J. A., CLSI, Document M7-A2, vol. 10, no. 8, pp. 13-20, 2nd edition, Villanova, Pa. (1990).
(§3) The following assay was used to determine the efficacy of the tetracycline compounds against gram positive and gram negative bacteria. 2 mg of each compound was dissolved in 100 μl of DMSO. […] The tetracycline compound solutions were diluted to 50 μL volumes, with a test compound concentration of 0.098 μg/ml. Optical density (OD) determinations were made from fresh log-phase broth cultures of the test strains. Dilutions were made to achieve a final cell density of […] CFU/ml. At OD=1, cell densities for different genera were approximately:
(§4) 50 μl of the cell suspensions were added to each well of microtiter plates. The final cell density was approximately 5×10^5 CFU/ml. These plates were incubated at 35° C. in an ambient air incubator for approximately 18 hours. The plates were read with a microplate reader and were visually inspected when necessary. The MIC was defined as the lowest concentration of the tetracycline compound that inhibits growth. Table 3 includes MIC data for several substituted tetracycline compounds.

[3] = system: gram negative bacteria; experiment: In vitro anti-bacterial activity assay (broth dilution MIC), gram negative bacteria; type: cell-based, E. coli
Description: as §2, §3, §4

[4] = Mammalian cytotoxicity assay (resazurin), COS-1 cells; type: cell-based; conditions: African green monkey, read-out: Cytotox. COS-1
Description: as §1

[5] = system: 3T3 fibroblast cells; experiment: In vitro phototoxicity assay (neutral red; UV light-treated vs dark control plates); type: cell-based
Description: 3T3 fibroblast cells were harvested and plated at a concentration of 1×10^5 cells/mL and the plates were incubated overnight at 37° C., in 5% CO2 and approximately 95% humidity. On the following day the medium was removed from the plates and replaced with Hanks' Balanced Salt Solution (HBSS). Compound dilutions were made in HBSS and added to the plates. For each compound tested, a duplicate plate was prepared that was not exposed to light as a control for compound toxicity. Plates were then incubated in a dark drawer (for controls), or under UV light (meter reading of 1.6-1.8 mW/cm^2) for 50 minutes. Cells were then washed with HBSS, fresh medium was added, and plates were incubated overnight as described above. The following day neutral red was added as an indicator of cell viability. The plates were then incubated for an additional 3 hours. Cells were then washed with HBSS and blotted on absorbent paper to remove excess liquid. A solution of 50% EtOH, 10% glacial acetic acid was added and after 20 minutes incubation the plate's absorbance at 535 nm was read using a Wallac Victor 5 spectrophotometer. The phototoxicity reflected the difference between the light-treated and control cultures. Table 3 includes phototoxicity (μM) data for several substituted tetracycline compounds.

[6] = Staphylococcus aureus, S. aureus MRSA5, read-out: Median MIC's G+ S. aureus MRSA5
[7] = Staphylococcus aureus, S. aureus RN450, read-out: Median MIC's G+ S. aureus RN450
[8] = Streptococcus pneumoniae, S. pneumoniae 157E-Strep, read-out: Median MIC's G+ S. pneumoniae 157E-Strep
[9] = Escherichia coli, 18 h, E. coli D1 209, read-out: Median MIC's G− E. coli D1 209

| Compound | IC50 at 24 h [1] [µM] | MIC [2, 6] [µg/mL] | MIC [2, 7] [µg/mL] | MIC [2, 8] [µg/mL] | MIC [3, 9] [µg/mL] | MIC ([3]; Escherichia coli, 18 h, E. coli MG 1655, read-out: Median MIC's G− E. coli MG 1655) [µg/mL] | MIC ([3]; Escherichia coli, ATCC25922, 18 h, E. coli ATCC 25922, read-out: Median MIC's G− E. coli ATCC 25922) [µg/mL] | MIC ([3]; Pseudomonas aeruginosa, 18 h, P. aeruginosa K201 PAO6609, read-out: Median MIC's G− P. aeruginosa K201 PAO6609) [µg/mL] | IC50 at 24 h [4] [µM] | Photo Toxicity UV Tox50 ([5]; UV light 50 minutes) [µM] | Photo Toxicity Dark Tox50 ([5]; dark control plate) [µM] | MIC ([3]; Escherichia coli, 18 h, read-out: Median MIC's G− E. coli D1 209, E. coli D1 209) [µg/mL] |
| --- | --- | --- | --- | --- | --- | --- | --- | --- | --- | --- | --- | --- |
| CN(C)CCNC(=O)c1ccc(O)c2c1C[C@H]1C[C@H]3[C@H](N(C)C)C(O)=C(C(N)=O)C(=O)[C@@]3(O)C(O)=C1C2=O [AH] | > 126 | 64 (≈ 121 µM) | 16 (≈ 30.3 µM) | 8 (≈ 15.1 µM) | 64 (≈ 121 µM) | 64 (≈ 121 µM) | 64 (≈ 121 µM) | 64 (≈ 121 µM) | > 126 | >125.56 | >125.56 |  |
| CN(C)[C@@H]1C(O)=C(C(N)=O)C(=O)[C@@]2(O)C(O)=C3C(=O)c4c(O)ccc(-c5ccccc5)c4C[C@H]3C[C@@H]12 [AQ] | 6.91 | 0.25 (≈ 0.51 µM) | 0.06 (≈ 0.122 µM) | 0.06 (≈ 0.122 µM) | 8 (≈ 16.3 µM) |  |  |  | 6.06 |  |  |  |
| COC(=O)c1ccc(-c2ccc(O)c3c2C[C@H]2C[C@H]4[C@H](N(C)C)C(O)=C(C(N)=O)C(=O)[C@@]4(O)C(O)=C2C3=O)cc1 [AR] | < 2.53 | 0.315 (≈ 0.574 µM) | 0.06 (≈ 0.109 µM) | 0.25 (≈ 0.456 µM) |  |  |  |  | 4.8 |  |  | 64 (≈ 117 µM) |
| CC(=O)c1cccc(-c2ccc(O)c3c2C[C@H]2C[C@H]4[C@H](N(C)C)C(O)=C(C(N)=O)C(=O)[C@@]4(O)C(O)=C2C3=O)c1 [AS] |  | 0.5 (≈ 0.939 µM) | 0.06 (≈ 0.113 µM) | 0.06 (≈ 0.113 µM) | 64 (≈ 120 µM) |  |  |  |  |  |  |  |
| CC(C)OC(=O)c1cccc(-c2ccc(O)c3c2C[C@H]2C[C@H]4[C@H](N(C)C)C(O)=C(C(N)=O)C(=O)[C@@]4(O)C(O)=C2C3=O)c1 [AU] | 6.12 | 1 (≈ 1.73 µM) | 0.25 (≈ 0.434 µM) | 0.5 (≈ 0.867 µM) | 64 (≈ 111 µM) |  |  |  | 4.56 |  |  |  |
| CN(C)[C@@H]1C(O)=C(C(N)=O)C(=O)[C@@]2(O)C(O)=C3C(=O)c4c(O)ccc(-c5ccc(CN6CCOCC6)o5)c4C[C@H]3C[C@@H]12 [AX] | > 32.6 | 4 (≈ 6.9 µM) | 0.06 (≈ 0.104 µM) | 0.06 (≈ 0.104 µM) | 8 (≈ 13.8 µM) |  |  |  | 27.1 |  |  |  |
| CN1CCN(Cc2ccc(-c3ccc(O)c4c3C[C@H]3C[C@H]5[C@@H](N(C)C)C(O)=C(C(N)=O)C(=O)[C@@]5(O)C(O)=C3C4=O)o2)CC1 [AY] | > 32 | 32 (≈ 54 µM) | 0.5 (≈ 0.844 µM) | 0.25 (≈ 0.422 µM) | 64 (≈ 108 µM) |  |  |  | > 32 |  |  |  |
| CN(C)c1cc(-c2ccc(CN3CCN(CCO)CC3)o2)c(O)c2c1C[C@H]1C[C@H]3[C@H](N(C)C)C(O)=C(C(N)=O)C(=O)[C@@]3(O)C(O)=C1C2=O [BA] | > 111 | 64 (≈ 96.1 µM) | 1 (≈ 1.5 µM) | 2 (≈ 3 µM) | 64 (≈ 96.1 µM) |  |  |  | > 111 |  |  |  |
| COCc1cccc(-c2ccc(O)c3c2C[C@H]2C[C@H]4[C@H](N(C)C)C(O)=C(C(N)=O)C(=O)[C@@]4(O)C(O)=C2C3=O)c1 [DB] | 13.2 | 0.5 (≈ 0.935 µM) | 0.06 (≈ 0.112 µM) | 0.06 (≈ 0.112 µM) | 64 (≈ 120 µM) |  |  |  | 10.4 |  |  |  |

— patent US20100022483A1, “Substituted Tetracycline Compounds” (Paratek Pharmaceuticals, Inc., priority 2008, published 2010)
